From patent publication US20150119352A1, “DINUCELOSIDE POLYPHOSPHATES FOR THE TREATMENT OF PAIN” (GlobalAcorn Ltd., priority 2012, published 2015)
Entries after “also recorded” stand apart in the source; their conditions may differ. Read-outs that look alike come from different tables or passages of the source.

Key:
[1] = test system: male Wistar rats; test: Formalin test (nociceptive behaviour, spontaneous jerking of injected paw); format: in vivo, rat; conditions: for nociceptive behavior after control injection of compound alone: 100 μM (100 μL), no formalin; for IC50: Rattus norvegicus; for IC50 First phase (acute pain), calculated / IC50 Second phase (chronic pain), calculated: Table 1, assuming 40 g rat body weight; for First phase (acute pain) / First phase (acute pain) (μg/kg) / Second phase (chronic pain) / Second phase (chronic pain) (μg/kg): Table 2; for First phase (acute pain) Human (70 kg) nmol / Second phase (chronic pain) Human (70 kg) nmol: Table 2, estimated indicative dose for 70 kg human; for First phase (acute pain) Rat (40 g) nmol / Second phase (chronic pain) Rat (40 g) nmol: Table 2, per 40 g rat; for recalculated effective concentration (second phase): assuming 40 g rat body weight; for number of nocifensive events triggered by the injection of formalin: co-injection 100 μL with formalin
Protocol: FIG. 6. Effects of subcutaneous Ap4A analogues on pain responses induced by intraplantar (right hindpaw) formalin injection. Rats were subcutaneously injected with formalin solution alone (0.5%, 50 μL, control) or co-injected with the formalin solution and solutions with AppCH2ppA (1 μM-100 μM, 100 μL) or AppNHppA (0.1 μM-100 μM, 100 μL). Age-matched control animals were injected with saline. A. Time-course of the effects of subcutaneous AppCH2ppA (a) and AppNHppA (b) on the number of the spontaneous jerkings of the injected paw. B. Bar-graphs of the effects of AppCH2ppA (a, b) and AppNHppA (c, d) on the integral number of spontaneous jerkings. Measurements were made during the acute phase (0-6 min) and tonic phase (7-45 min) of the formalin response. C. Dose-response curves for AppCH2ppA (a) and AppNHppA (b) during tonic and acute phases.
The formalin test experiments were performed on 21-day old male Wistar rats, weighing 40±5 g according to the method described previously (Simonetti et al, 2006; Yegutkin et al, 2008). Briefly, animal was acclimated to an acrylic observation chamber for at least 1 h before the injection of formalin ([…] of 0.5% solution in 0.9% saline) into the dorsal surface of the right hindpaw. Age-matched control animals were injected with saline (100 μL). Immediately after the injection, each animal was returned to the observation chamber and its behavioural characteristics were recorded for 45 min. We noticed consistently observed type of response: spontaneous jerking of the injected paw. The number of jerks was measured for each […], using self-developed computer software.
The effects of AppNHppA and AppCH2ppA were examined on the behavioral reactions of rats in inflammatory pain models. Injection of diluted formalin into a rodent's hindpaw produces a biphasic nociceptive response consisting of immediate (acute phase) and tonic (inflammatory phase) components. The first phase of a formalin response (i.e. 0-5 min after injection) involves a direct effect of formalin on the pain receptors, while changes in animal behavior during the second tonic phase (i.e. 7-45 min after injection) are caused by hyperalgesia that develops due to the sensitization of nociceptive and spinal neurons via mechanisms that are triggered by repetitive stimulation during the first phase.

[2] = target: T1, rat homomeric P2X7 receptors (Rattus norvegicus, UniProt Q64663); test: Whole-cell patch clamp, rat homomeric P2X7 receptors; format: cell-based; conditions: 1 μM; ATP
T1 construct: expressed in transfected cells
T1 sequence (Q64663 1-595): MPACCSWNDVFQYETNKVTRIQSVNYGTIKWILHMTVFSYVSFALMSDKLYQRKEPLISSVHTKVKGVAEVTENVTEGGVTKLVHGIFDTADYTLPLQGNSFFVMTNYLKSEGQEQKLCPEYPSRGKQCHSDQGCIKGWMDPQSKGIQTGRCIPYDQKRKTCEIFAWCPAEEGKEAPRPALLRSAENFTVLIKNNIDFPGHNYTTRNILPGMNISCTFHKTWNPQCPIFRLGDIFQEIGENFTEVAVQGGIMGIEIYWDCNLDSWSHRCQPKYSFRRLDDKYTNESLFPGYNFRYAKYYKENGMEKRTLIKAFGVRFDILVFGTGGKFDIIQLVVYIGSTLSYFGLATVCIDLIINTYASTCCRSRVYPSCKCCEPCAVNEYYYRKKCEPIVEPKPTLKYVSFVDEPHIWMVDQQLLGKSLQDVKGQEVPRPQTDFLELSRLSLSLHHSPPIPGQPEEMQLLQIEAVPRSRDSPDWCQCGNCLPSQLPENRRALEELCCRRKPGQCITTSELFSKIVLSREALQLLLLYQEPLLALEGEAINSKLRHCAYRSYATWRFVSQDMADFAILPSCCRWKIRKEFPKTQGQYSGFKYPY
Protocol: FIG. 4. […] A. Example traces of responses induced by 10 μM ATP applied for 2 s every 2 min to HEK cells expressing rat homomeric P2X2 receptors in the presence and absence of 1 μM AppNHppA. B. Comparison of currents induced by the full agonist of P2X2 receptors, ATP, in the presence of 1 μM AppNHppA (right) and absence (left). C. The time course of the current in the presence and absence of 1 μM AppNHppA. D. Comparison of currents induced by the full agonist of rat homomeric P2X4 and P2X7 receptors, ATP, in the presence of 1 μM AppNHppA (right) and absence (left). Experiments were performed as in FIG. 2.
Trigeminal, nodose, DRG neurons or HEK cells were recorded in the whole-cell configuration while being continuously superfused (at 2 mL/min) with control solution containing (in mM): 152 NaCl, 5 KCl, 1 MgCl2, 2 CaCl2, 10 glucose, and 10 HEPES; pH was adjusted to 7.4 with NaOH and osmolarity was adjusted to 320 mOsM with glucose. […] Responses to selective P2X3 receptor agonist α,β-methylene-ATP (α,β-meATP; resistant to ectoATPase hydrolysis, Sigma-Aldrich) were measured using an EPC-9 amplifier and HEKA Patch Master software (HEKA Electronik, Germany). Cells were voltage-clamped at −70 mV. In most cells, series resistance was compensated by 80%. […]

[3] = Table 1, concentration, read-out: IC50 First phase (acute pain)
[4] = Table 1, concentration, read-out: IC50 Second phase (chronic pain)
[5] = co-injection (100 μL) with formalin into paw, read-out: IC50 in the first (acute) phase
[6] = co-injection (100 μL) with formalin into paw, read-out: IC50 in the second (tonic) phase

Row | Compound | nociceptive behavior after control injection of compound alone [1] | IC50 [1, 3] | IC50 [1, 4] | IC50 [1, 5] | IC50 [1, 6] | IC50 First phase (acute pain), calculated [1] | IC50 Second phase (chronic pain), calculated [1] | First phase (acute pain) [1] | First phase (acute pain) (μg/kg) [1] | Second phase (chronic pain) [1] | Second phase (chronic pain) (μg/kg) [1] | First phase (acute pain) Human (70 kg) nmol [1] | Second phase (chronic pain) Human (70 kg) nmol [1] | First phase (acute pain) Rat (40 g) nmol [1] | Second phase (chronic pain) Rat (40 g) nmol [1] | recalculated effective concentration (second phase) [1] | number of nocifensive events triggered by the injection of formalin [1] | kH, second (tonic) phase ([1]; co-injection with formalin) | also measured
1 | Nc1ncnc2c1ncn2[C@@H]1O[C@H](COP(=O)(O)OP(=O)(O)CP(=O)(O)OP(=O)(O)OC[C@H]2O[C@@H](n3cnc4c(N)ncnc43)C(O)C2O)C(O)C1O (stereo in doubt) [AppCH2ppA] | Lack of nociceptive behavior | 32 ± 2.2 µM | 0.51 ± 0.06 µM | 31.9 ± 22 µM | 0.5 ± 0.06 µM | 80 ± 5.5 nmol/kg | 1.28 + 0.06 nmol/kg | 80 ± 5.5 nmol/kg | (67) μg/kg | 1.28 ± 0.06 nmol/kg | (1.067) μg/kg | 5600 nmol | 89.6 nmol | 3.2 nmol | 0.0512 nmol | 1.28±0.06 nmolkg | potently reduced | 0.89±0.18 | kH, first (acute) phase ([1]; co-injection with formalin): 0.82±0.09; times more effective reduction of nocifensive behavior in second (tonic) phase compared with first (acute) phase ([1]; rat, in vivo): 60 times
2 | Nc1ncnc2c1ncn2[C@@H]1O[C@H](COP(=O)(O)OP(=O)(O)NP(=O)(O)OP(=O)(O)OC[C@H]2O[C@@H](n3cnc4c(N)ncnc43)C(O)C2O)C(O)C1O (stereo in doubt) [AppNHppA] | Lack of nociceptive behavior | > 100 µM | 0.25 ± 0.09 µM | > 100 µM | 0.25 ± 0.06 µM | >250 nmol/kg | 0.63 ± 0.23 nmol/kg | >250 nmol/kg | (209) μg/kg | 0.63 ± 0.23 nmol/kg | (0.526) μg/kg | 17500 nmol | 44.1 nmol | 10 nmol | 0.0252 nmol | 0.63±0.23 nmolkg | potently reduced | 0.89±0.18 | effect on P2X7 receptor-mediated currents [2]: not observed to produce any effects; also recorded: non-inhibitory effect
